Where “and” joins values, the source holds several entries; their conditions need not be identical. Equal entries are not always repeated. Inconclusive results and toxic doses are left out.
System: CD2F1 mice, L1210 leukemia ip, survival T/C
Experiment: NCI In Vivo Anticancer Drug Screen. Data for tumor model L1210 Leukemia (intraperitoneal) in CD2F1 (CDF1) mice
Details: higher = longer survival
Outline: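 Activity against a transplanted murine tumor was judged by comparing the compound group with a vehicle group. The outcome in the treated animals was divided by that in the controls.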

[1] = endpoint: mean survival time, dose: 100.0 mg/kg/injection, schedule: Q04DX002 (ip), vehicle: saline with Tween-80
[2] = endpoint: mean survival time, dose: 200.0 mg/kg/injection, schedule: Q04DX002 (ip), vehicle: saline with Tween-80
[3] = endpoint: mean survival time, dose: 400.0 mg/kg/injection, schedule: Q04DX002 (ip), vehicle: saline with Tween-80
[4] = endpoint: mean survival time, dose: 100.0 mg/kg/injection, schedule: Q01DX009 (ip), vehicle: saline with Tween-80
[5] = endpoint: mean survival time, dose: 200.0 mg/kg/injection, schedule: Q01DX009 (ip), vehicle: saline with Tween-80
[6] = endpoint: mean survival time, dose: 400.0 mg/kg/injection, schedule: Q01DX009 (ip), vehicle: saline with Tween-80
[7] = endpoint: mean survival time, dose: 100.0 mg/kg/injection, schedule: Q01DX001 (ip), vehicle: saline with Tween-80
[8] = endpoint: mean survival time, dose: 200.0 mg/kg/injection, schedule: Q01DX001 (ip), vehicle: saline with Tween-80
[9] = endpoint: mean survival time, dose: 400.0 mg/kg/injection, schedule: Q01DX001 (ip), vehicle: saline with Tween-80
[10] = endpoint: mean survival time, dose: 100.0 mg/kg/injection, schedule: Q01DX009 (ip), vehicle: saline
[11] = endpoint: mean survival time, dose: 100.0 mg/kg/injection, schedule: Q04DX003 (ip), vehicle: saline with Tween-80
[12] = endpoint: mean survival time, dose: 200.0 mg/kg/injection, schedule: Q04DX003 (ip), vehicle: saline with Tween-80
[13] = endpoint: mean survival time, dose: 400.0 mg/kg/injection, schedule: Q04DX003 (ip), vehicle: saline with Tween-80
[14] = endpoint: mean survival time, dose: 50.0 mg/kg/injection, schedule: Q01DX009 (ip), vehicle: saline with Tween-80
[15] = endpoint: mean survival time, dose: 50.0 mg/kg/injection, schedule: Q04DX003 (ip), vehicle: saline with Tween-80

SMILES: O=C1NC(CN2CCCCC2)C(=O)NC1CN1CCCCC1 (stereo unspecified)
- T/C (endpoint: mean survival time, dose: 3.13 mg/kg/injection, schedule: Q01DX009 (ip), vehicle: water): 98 % of control
- T/C (endpoint: mean survival time, dose: 6.25 mg/kg/injection, schedule: Q01DX009 (ip), vehicle: water): 98 % of control
- T/C (endpoint: mean survival time, dose: 12.5 mg/kg/injection, schedule: Q01DX009 (ip), vehicle: water): 105 % of control
- T/C (endpoint: mean survival time, dose: 25.0 mg/kg/injection, schedule: Q01DX009 (ip), vehicle: water): 103 % of control
- T/C (endpoint: mean survival time, dose: 50.0 mg/kg/injection, schedule: Q01DX009 (ip), vehicle: water): 98 % of control
- T/C (endpoint: mean survival time, dose: 100.0 mg/kg/injection, schedule: Q01DX009 (ip), vehicle: water): 105 % of control

SMILES: [Cl-].[NH-]CCN(CC[NH-])CCN.[O-][Cl+3]([O-])([O-])O.[O-][Cl+3]([O-])([O-])O.[Pt+2]
- T/C (endpoint: mean survival time, dose: 12.5 mg/kg/injection, schedule: Q04DX003 (ip), vehicle: saline with Tween-80): 97 % of control

SMILES: O=C1C=CC(=O)N1Cc1ccco1
- T/C (endpoint: mean survival time, dose: 100.0 mg/kg/injection, schedule: Q04DX003 (ip), vehicle: saline): 102 % of control
- T/C (endpoint: mean survival time, dose: 200.0 mg/kg/injection, schedule: Q04DX003 (ip), vehicle: saline): 95 % of control
- T/C (endpoint: mean survival time, dose: 400.0 mg/kg/injection, schedule: Q04DX003 (ip), vehicle: saline): 90 % of control

SMILES: COC1CCC(/C(C#N)=C/C2CCC(OC)C(OC)C2)CC1 (stereo unspecified)
- T/C [1]: 94 % of control
- T/C [2]: 94 % of control
- T/C [3]: 94 % of control

SMILES: O=C(N/N=C/c1cccc([N+](=O)[O-])c1)c1ccc(Cl)cc1Cl
- T/C [4]: 100 % of control
- T/C [5]: 97 % of control
- T/C [6]: 100 % of control

SMILES: O=C1/C(=C/c2ccccc2[N+](=O)[O-])Cc2ccccc21
- T/C (endpoint: mean survival time, dose: 100.0 mg/kg/injection, schedule: Q04DX003 (ip), vehicle: Klucel (hydroxypropylcellulose) (HPC)): 100 % of control
- T/C (endpoint: mean survival time, dose: 200.0 mg/kg/injection, schedule: Q04DX003 (ip), vehicle: Klucel (hydroxypropylcellulose) (HPC)): 100 % of control
- T/C (endpoint: mean survival time, dose: 400.0 mg/kg/injection, schedule: Q04DX003 (ip), vehicle: Klucel (hydroxypropylcellulose) (HPC)): 103 % of control

SMILES: Nc1nnc(Cl)s1
- T/C [7]: 108 % of control
- T/C [8]: 104 % of control
- T/C [9]: 97 % of control

SMILES: CCOC(=O)c1ccc(NC/C(CN)=N/O)cc1
- T/C (endpoint: mean survival time, dose: 75.0 mg/kg/injection, schedule: Q01DX001 (ip), vehicle: other): 95 % of control
- T/C (endpoint: mean survival time, dose: 150.0 mg/kg/injection, schedule: Q01DX001 (ip), vehicle: other): 95 % of control

SMILES: CC(=O)N1CCCCC1
- T/C (endpoint: mean survival time, dose: 25.0 mg/kg/injection, schedule: Q01DX009 (ip), vehicle: saline): 102 % of control
- T/C (endpoint: mean survival time, dose: 50.0 mg/kg/injection, schedule: Q01DX009 (ip), vehicle: saline): 96 % of control
- T/C [10]: 102 % of control

SMILES: Nc1nc(Cl)ncc1C1OC(CO)C(O)C1O (stereo unspecified)
- T/C (endpoint: mean survival time, dose: 12.5 mg/kg/injection, schedule: Q01DX005 (ip), vehicle: water): 91 % of control
- T/C (endpoint: mean survival time, dose: 25.0 mg/kg/injection, schedule: Q01DX005 (ip), vehicle: water): 95 % of control
- T/C (endpoint: mean survival time, dose: 50.0 mg/kg/injection, schedule: Q01DX005 (ip), vehicle: water): 91 % of control
- T/C (endpoint: mean survival time, dose: 100.0 mg/kg/injection, schedule: Q01DX005 (ip), vehicle: water): 87 % of control
- T/C (endpoint: mean survival time, dose: 200.0 mg/kg/injection, schedule: Q01DX005 (ip), vehicle: water): 98 % of control

SMILES: CC(=O)c1c(C)c2c(C)cc3oc(=O)c(C(C)=O)c(C)c3c2oc1=O
- T/C [2]: 92 % of control
- T/C [3]: 87 % of control

SMILES: O=C(O)C(O)C(O)C(=O)O.[NH-]C1CCCCC1[NH-].[Pt+2] (stereo unspecified)
- T/C (endpoint: mean survival time, dose: 1.56 mg/kg/injection, schedule: Q04DX003 (ip), vehicle: water): 115 % of control
- T/C (endpoint: mean survival time, dose: 12.5 mg/kg/injection, schedule: Q04DX003 (ip), vehicle: water): 367 % of control
- T/C (endpoint: mean survival time, dose: 25.0 mg/kg/injection, schedule: Q04DX003 (ip), vehicle: water): 266 % of control
- T/C (endpoint: mean survival time, dose: 50.0 mg/kg/injection, schedule: Q04DX003 (ip), vehicle: water): 201 % of control

SMILES: Nc1nc(-c2ccccc2)cs1
- T/C [11]: 105 % of control

SMILES: CC1(C)CCC2(C)CC(C(=O)O)C(=O)C=C2C1 (stereo unspecified)
- T/C [7]: 100 % of control
- T/C [8]: 92 % of control
- T/C [9]: 96 % of control

SMILES: NCCCNCCCCNCCCN
- T/C (endpoint: median survival time, dose: 24.75 mg/kg/injection, schedule: Q04DX003 (ip), vehicle: saline): 101 % of control
- T/C (endpoint: median survival time, dose: 49.5 mg/kg/injection, schedule: Q04DX003 (ip), vehicle: saline): 107 % of control

SMILES: COc1cc([N+](=O)[O-])ccc1NC(=O)NCCc1ccccc1
- T/C [7]: 86 % of control and 97 % of control
- T/C [4]: 90 % of control and 91 % of control
- T/C [1]: 95 % of control
- T/C [11]: 89 % of control
- T/C [8]: 86 % of control and 91 % of control
- T/C [5]: 91 % of control and 103 % of control
- T/C [2]: 95 % of control
- T/C [12]: 91 % of control
- T/C [9]: 91 % of control
- T/C [6]: 90 % of control and 91 % of control
- T/C [3]: 90 % of control
- T/C [13]: 89 % of control

SMILES: CC1=C(c2ccccc2)C(c2ccccc2)C(C)C1=O (stereo unspecified)
- T/C [4]: 100 % of control
- T/C [5]: 98 % of control
- T/C [6]: 87 % of control

SMILES: CCOc1ccc(NC(=O)C2CCC(C)(C(=O)O)C2(C)C)cc1 (stereo unspecified)
- T/C (endpoint: mean survival time, dose: 25.0 mg/kg/injection, schedule: Q01DX009 (ip), vehicle: saline with Tween-80): 102 % of control
- T/C (endpoint: mean survival time, dose: 25.0 mg/kg/injection, schedule: Q04DX003 (ip), vehicle: saline with Tween-80): 98 % of control
- T/C [14]: 98 % of control
- T/C [15]: 100 % of control
- T/C [4]: 95 % of control
- T/C [11]: 96 % of control and 98 % of control

SMILES: Cc1ccc(S(=O)(=O)Nc2ccccc2)c(C(O)(c2ccccc2)c2ccccc2)c1
- T/C [11]: 95 % of control
- T/C [12]: 106 % of control
- T/C [13]: 95 % of control

SMILES: C#CC(OC(=O)Nc1ccccc1)C1OC2OC(C)(C)OC2C2OC(C)(C)OC12 (stereo unspecified)
- T/C [14]: 97 % of control
- T/C [4]: 93 % of control
- T/C [5]: 97 % of control

SMILES: O=C(Nc1cccc2c1C(=O)c1ccc(Nc3cc(NC(=O)c4ccccc4)c4c(c3)C(=O)c3ccccc3C4=O)cc1C2=O)c1ccccc1
- T/C [4]: 106 % of control
- T/C [11]: 102 % of control
- T/C [5]: 102 % of control
- T/C [12]: 102 % of control
- T/C [6]: 119 % of control
- T/C [13]: 96 % of control

SMILES: C[CH2][Ge]([CH2]C)[CH2]C.C[CH2][Ge]([CH2]C)[CH2]C
- T/C [15]: 104 % of control
- T/C [11]: 100 % of control
- T/C [12]: 104 % of control

SMILES: O=C=Nc1ccc(Cl)c(Cl)c1 (tested in a mixture with another compound)
- T/C (endpoint: mean survival time, dose: 50.0 mg/kg/injection, schedule: Q04DX002 (ip), vehicle: saline with Tween-80): 97 % of control
- T/C [1]: 108 % of control
- T/C [2]: 93 % of control
- T/C [3]: 89 % of control

SMILES: CN(C)S(=O)(=O)Oc1cccc([N+](=O)[O-])c1
- T/C [11]: 96 % of control

SMILES: CC(=O)SCCCCl
- T/C [10]: 97 % of control
- T/C (endpoint: mean survival time, dose: 200.0 mg/kg/injection, schedule: Q01DX009 (ip), vehicle: saline): 101 % of control

SMILES: CC1(C)NC(=O)NC1=O
- T/C (endpoint: mean survival time, dose: 100.0 mg/kg/injection, schedule: Q01DX001 (ip), vehicle: saline): 98 % of control
- T/C (endpoint: mean survival time, dose: 200.0 mg/kg/injection, schedule: Q01DX001 (ip), vehicle: saline): 107 % of control
- T/C (endpoint: mean survival time, dose: 400.0 mg/kg/injection, schedule: Q01DX001 (ip), vehicle: saline): 107 % of control

SMILES: CCCC(=O)c1c(C)cc(C)cc1C
- T/C (endpoint: mean survival time, dose: 100.0 mg/kg/injection, schedule: Q04DX003 (ip), vehicle: other): 98 % of control
- T/C (endpoint: mean survival time, dose: 200.0 mg/kg/injection, schedule: Q04DX003 (ip), vehicle: other): 104 % of control
- T/C (endpoint: mean survival time, dose: 400.0 mg/kg/injection, schedule: Q04DX003 (ip), vehicle: other): 98 % of control

SMILES: O=C1OC2(c3cc(I)c(O)c(I)c3Oc3c2cc(I)c(O)c3I)c2c(Cl)ccc(Cl)c21
- T/C [7]: 103 % of control
- T/C [8]: 87 % of control
- T/C [9]: 100 % of control

SMILES: CSc1nc(=O)[nH]c2c1c1c(N)ncnc1n2C1OC(CO)C(O)C1O (stereo unspecified)
- T/C (endpoint: mean survival time, dose: 12.5 mg/kg/injection, schedule: Q01DX005 (ip), vehicle: distilled water + Tween-80): 104 % of control
- T/C (endpoint: mean survival time, dose: 25.0 mg/kg/injection, schedule: Q01DX005 (ip), vehicle: distilled water + Tween-80): 97 % of control
- T/C (endpoint: mean survival time, dose: 50.0 mg/kg/injection, schedule: Q01DX005 (ip), vehicle: distilled water + Tween-80): 104 % of control
- T/C (endpoint: mean survival time, dose: 100.0 mg/kg/injection, schedule: Q01DX005 (ip), vehicle: distilled water + Tween-80): 100 % of control
- T/C (endpoint: mean survival time, dose: 200.0 mg/kg/injection, schedule: Q01DX005 (ip), vehicle: distilled water + Tween-80): 104 % of control

— PubChem BioAssay AID256 (DTP/NCI, 2004)
